In brackets after ≈: the same amount, converted by molar mass. Structures can show the parent of a compound that is named as a salt.
Tests used:
[1] = test system: Staphylococcus aereus 209PJC-1; assay: Minimum Inhibitory Concentration by Agar Plate Dilution Method; format: cell-based; conditions: 209PJC1
[2] = test system: Staphylococcus aereus Smith S-424; assay: as above; format: cell-based; conditions: SMITHS424
[3] = test system: Bacillus anthracis No. 119; assay: microbe, parasite or virus in culture; format: cell-based; conditions: NO.119, read-out: Minimum Inhibitory Concentration
[4] = test system: Escherichia coli GN 206 (CSase); assay: Minimum Inhibitory Concentration by Agar Plate Dilution Method; format: cell-based; conditions: GN206
[5] = test system: Citrobacter freundii GN 346 (CSase); assay: as above; format: cell-based; conditions: GN346
[6] = test system: Klebsiella pneumoniae GN 69 (PCase); assay: as above; format: cell-based; conditions: GN69
[7] = test system: Proteus morganii 1510 (CSase); assay: as above; format: cell-based; conditions: Morganella morganii
[8] = test system: Proteus rettgeri GN 624 (CSase); assay: as above; format: cell-based; conditions: Providencia rettgeri, GN624
Proteus vulgaris OX 19 = assay: as above; format: cell-based; conditions: OX19
[9] = test system: Serratia marcescens No. 1; assay: as above; format: cell-based
[10] = test system: Serratia species GN 629 (CSase); assay: as above; format: cell-based; conditions: GN629
[11] = test system: Pseudomonas aeruginosa IAM-1007; assay: as above; format: cell-based; conditions: IAM1007
[12] = test system: Pseudomonas aeruginosa M-0025; assay: as above; format: cell-based; conditions: M0025
[13] = test system: Pseudomonas cepacia M-0527; assay: as above; format: cell-based; conditions: Burkholderia cepacia, M0527
[14] = test system: Pseudomonas cepacia TMS 199, KM 425; assay: as above; format: cell-based; conditions: Burkholderia cepacia
Maltophilia 604 = assay: as above; format: cell-based
mice = assay: Acute toxicity, intraperitoneal administration to mice; format: in vivo; conditions: six mice, intraperitoneally 1,000 mg/kg
Protocol: The toxicity of the compounds according to this invention is very low. None of the six mice administered intraperitoneally 1,000 mg/kg of the compound of Example 2 died. Therefore, the compounds of this invention have very low toxicity. In addition, they have a wide antibacterial spectrum and are very effective in treating infectious diseases, as compared with the conventional cephalosporin series antibiotics such as cephalotin, cefazolin, cephalexin and cephaloridine.

[15] = test system: Gram-positive and Gram-negative bacteria, including Pseudomonas aeruginosa; conditions: conventional cephalosporin series antibiotics; cited from earlier work

SMILES | MIC [1] [µg/mL] | MIC [2] [µg/mL] | MIC [3] [µg/mL] | MIC [4] [µg/mL] | MIC [5] [µg/mL] | MIC [6] [µg/mL] | MIC [7] [µg/mL] | MIC [8] [µg/mL] | MIC (Proteus vulgaris OX 19) [µg/mL] | MIC [9] [µg/mL] | MIC [10] [µg/mL] | MIC [11] [µg/mL] | MIC [12] [µg/mL] | MIC [13] [µg/mL] | MIC [14] [µg/mL] | MIC (Maltophilia 604) [µg/mL] | mice that died (mice) | control of Gram-negative bacilli typified by Pseudomonas aeruginosa [15]
COc1ccc(-c2ccc(C(=O)N[C@@H](C(=O)NC3C(=O)N4C(C(=O)O)=C(CSc5nnnn5C)CSC34)c3ccc(O)cc3)c(=O)[nH]2)cc1OC (single isomer, unassigned) [Example 2, sodium salt of 7-{D(-)-α-[6-(3,4-dimethoxyphenyl)-1,2-dihydro-2-oxopyridine-3-carbonylamino]-p-hydroxyphenylacetamido}-3-(1-methyl-1,2,3,4-tetrazol-5-ylthiomethyl)-3-cephem-4-carboxylic acid] | 0.78 | 0.78 | 1.56 | 3.13 | 3.13 | 12.5 | 25 | 12.5 | 0.78 | 3.13 | 12.5 | 6.25 | 3.13 | 6.25 | 6.25 | 6.25 | None | 
COc1ccc(COc2ccc(-c3ccc(C(=O)N[C@@H](C(=O)NC4C(=O)N5C(C(=O)O)=C(CSc6nnnn6C)CSC45)c4ccc(O)cc4)c(=O)[nH]3)cc2OC)cc1OC (single isomer, unassigned) [Example 5, sodium salt of 7-{D(-)-α-[6-[4-(3,4-dimethoxybenzyloxy)-3-methoxyphenyl]-1,2-dihydro-2-oxopyridine-3-carbonylamino]-p-hydroxyphenylacetamido}-3-(1-methyl-1,2,3,4-tetrazol-5-ylthiomethyl)-3-cephem-4-carboxylic acid] | 0.78 | 0.78 | 0.2 | 0.2 | 0.78 | 6.25 | 12.5 | 3.13 | 0.39 | 3.13 | 12.5 | 12.5 | 3.13 | 6.25 | 6.25 | 12.5 |  | 
CCN1CCN(C(=O)N[C@@H](C(=O)N[C@@H]2C(=O)N3[C@@H]2SC(C)(C)[C@@H]3C(=O)O)c2ccccc2)C(=O)C1=O [Example T-1220, piperacillin, reference compound] | 0.78 (≈ 1.51 µM) | 1.56 (≈ 3.01 µM) | 0.78 (≈ 1.51 µM) | 25 (≈ 48.3 µM) | 100 (≈ 193 µM) | 50 (≈ 96.6 µM) | 50 (≈ 96.6 µM) | 0.78 (≈ 1.51 µM) | 1.56 (≈ 3.01 µM) | 1.56 (≈ 3.01 µM) | 25 (≈ 48.3 µM) | 12.5 (≈ 24.2 µM) | 6.25 (≈ 12.1 µM) | 1.56 (≈ 3.01 µM) |  | 200 (≈ 386 µM) |  | 
Cc1nnc(SCC2=C(C(=O)O)N3C(=O)[C@@H](NC(=O)Cn4cnnn4)[C@H]3SC2)s1 [cefazolin] |  |  |  |  |  |  |  |  |  |  |  |  |  |  |  |  |  | cannot be controlled
CC1=C(C(=O)O)N2C(=O)[C@@H](NC(=O)[C@H](N)c3ccccc3)[C@H]2SC1 [cephalexin] |  |  |  |  |  |  |  |  |  |  |  |  |  |  |  |  |  | cannot be controlled
O=C(Cc1cccs1)N[C@@H]1C(=O)N2C(C(=O)[O-])=C(C[n+]3ccccc3)CS[C@H]12 [cephaloridine] |  |  |  |  |  |  |  |  |  |  |  |  |  |  |  |  |  | cannot be controlled
CC(=O)OCC1=C(C(=O)O)N2C(=O)[C@@H](NC(=O)Cc3cccs3)[C@H]2SC1 [cephalotin] |  |  |  |  |  |  |  |  |  |  |  |  |  |  |  |  |  | cannot be controlled
